Assay results from article PMC10835127, “Viruses traverse the human proteome through peptide interfaces that can be biomimetically leveraged for drug discovery” (Proceedings of the National Academy of Sciences of the …, 2024).
Read-outs that look alike come from different tables or passages of the source.

Tests used:
HIV1 strain NL4-3 = assay type: cell-based; conditions: normalized mean of HIV1 replication readout
HCV replicon = assay type: cell-based; conditions: normalized mean of HCV replicon readout
[1] = test system: F. novicida (strain U112); assay type: cell-based
influenza A H1N1 virus = conditions: 48 hr post-treatment, A549
EBV = conditions: normalized mean of EBV replication readout

| Substance | HIV1 Norm MEAN (HIV1 strain NL4-3) | HCV Norm MEAN (HCV replicon) | Francisella novicida Norm AUC [1] | Neuraminidase activity normalized to vehicle (influenza A H1N1 virus; 200 µM peptide) | Neuraminidase activity normalized to vehicle (influenza A H1N1 virus; 0,823 µM peptide) | Neuraminidase activity normalized to vehicle (influenza A H1N1 virus; 22,2 µM peptide) | Neuraminidase activity normalized to vehicle (influenza A H1N1 virus; 2,4691 µM peptide) | Neuraminidase activity normalized to vehicle (influenza A H1N1 virus; 7,4074 µM peptide) | Neuraminidase activity normalized to vehicle (influenza A H1N1 virus; 66,6667 µM peptide) | EBV Norm MEAN (EBV) | HIV1 Norm MEAN (HIV1 strain NL4-3; peptide screen) | HCV Norm MEAN (HCV replicon; peptide screen) | EBV Norm MEAN (EBV; peptide screen) |
| --- | --- | --- | --- | --- | --- | --- | --- | --- | --- | --- | --- | --- | --- |
| PKKKRKV [CPEP56] | 0.9705 | 0.1426 | 1.16 | 0,9628 | 1,0162 | 0,9231 | 0,8416 | 0,8936 | 0,9527 | 0.9787 |  |  |  |
| PLDLS [CPEP54] | 1.112 | 0.1712 | 0.4272 | 1,1329 | 1,0199 | 0,844 | 1,1627 | 0,6425 | 1,0456 | 1.129 |  |  |  |
| PPIPPPR [CPEP151] | 0.669 | 0.3254 | 1.288 | 1,016 | 0,9906 | 0,9273 | 0,9123 | 0,9111 | 0,9435 | 1.55 |  |  |  |
| PPPPY [CPEP132] | 1.621 | 0.2215 | 0.9275 | 0,8244 | 0,8549 | 0,9192 | 0,87 | 0,8306 | 1,0078 | 1.203 |  |  |  |
| PTAPP [CPEP49] | 1.171 | 0.1885 | 1.057 | 0,7922 | 0,6686 | 0,8389 | 0,6943 | 0,7716 | 0,9061 | 0.9513 |  |  |  |
| PVHAGPIAP [CPEP87] | 0.4 | 0.2137 | 1.084 | 0,6355 | 1,0155 | 0,8043 | 0,8845 | 0,906 | 0,7025 | 0.6567 |  |  |  |
| PVHAGPIAPGQMREP [CPEP81] |  |  | 1.038 | 0,9395 | 0,9268 | 1,0319 | 1,0385 | 1,0221 | 1,026 |  | 0.8771 | 0.6759 | 0.3978 |
| PVQES [CPEP44] | 2.9976 | 0.1889 | 0.7515 | 0,8825 | 0,8116 | 0,9052 | 0,843 | 0,7952 | 1,0152 | 1.192 |  |  |  |
